# Source: BindingDB's records for doi:10.7270/Q2H993J6 (Pcmd, 2008)
# Target: Coagulation factor XI (Homo sapiens, UniProt P03951)
# Test: FXIa inhibitor IC50 values, dose response, biochemical, hits from 1536-well screen (AID 846)
# Conditions: pH 7.4; 23 °C
# Coagulation factor XI, sequence (P03951 19-387 limits assumed): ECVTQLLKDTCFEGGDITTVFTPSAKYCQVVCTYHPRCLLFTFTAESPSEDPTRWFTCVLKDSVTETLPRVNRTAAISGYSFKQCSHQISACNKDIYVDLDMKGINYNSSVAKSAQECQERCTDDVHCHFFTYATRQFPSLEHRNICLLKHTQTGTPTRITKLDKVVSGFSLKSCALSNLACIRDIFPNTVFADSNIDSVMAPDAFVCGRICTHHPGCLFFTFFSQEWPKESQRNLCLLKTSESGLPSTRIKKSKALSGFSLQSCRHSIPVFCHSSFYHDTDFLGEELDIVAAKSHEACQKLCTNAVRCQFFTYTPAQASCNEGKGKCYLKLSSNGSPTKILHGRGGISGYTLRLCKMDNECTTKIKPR
# Coagulation factor XI, sequence (P03951 388-625 limits assumed): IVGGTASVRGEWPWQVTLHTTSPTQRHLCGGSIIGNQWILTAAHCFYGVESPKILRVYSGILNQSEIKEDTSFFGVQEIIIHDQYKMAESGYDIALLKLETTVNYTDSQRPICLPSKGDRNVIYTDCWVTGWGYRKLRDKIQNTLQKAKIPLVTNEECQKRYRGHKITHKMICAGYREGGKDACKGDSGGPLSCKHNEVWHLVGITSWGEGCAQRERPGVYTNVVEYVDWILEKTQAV
row,Structure (SMILES),IC50
1,Cc1onc(-c2ccccc2)c1C(=O)N(Cc1ccco1)Cc1cccs1 [MLS000771400],> 50 µM
2,O=C(NN=Cc1ccccc1C(=O)O)c1ccccc1Br [MLS000774668],> 50 µM
3,CC(=O)Nc1ccc(S(=O)(=O)NNC(=O)COc2ccc(Cl)cc2Cl)cc1 [MLS000777409],> 50 µM
4,COc1ccccc1CC(=O)NCc1csc(-c2cccs2)n1 [MLS000859819],> 50 µM
5,COc1ccc(CN(Cc2ccc(OC)cc2)C(=O)c2cccs2)cc1 [MLS000860276],> 50 µM
6,Fc1ccc(Nc2ccc3ccccc3n2)c(F)c1 [MLS001004714],> 50 µM
7,Cc1nn(CC(=O)c2ccc(Cl)s2)c(C)c1[N+](=O)[O-] [MLS001006606],> 50 µM
8,COc1cc(C(=O)NCC(=O)OCn2nnc3ccccc3c2=O)cc(OC)c1OC [MLS001007360],> 50 µM
9,CC1(C)C2CCC(C2)C1(C)/N=C1\OC(CCl)CS1 (stereo not given) [MLS001012164],> 50 µM
10,CC1(C)[N-]c2ccc([N+](=O)[O-])c(N)c2[N+]1=O [MLS001012383],> 50 µM
11,CN(C)c1ccc(C(=S)N2CCN(c3ccc([N+](=O)[O-])cc3)CC2)cc1 [MLS001033622],> 50 µM
12,COc1cc(C=NNC(=O)c2ccc(CN3C(=O)c4cccc5cccc3c45)cc2)cc(OC)c1O [MLS001033788],> 50 µM
13,CC(C)N(Cc1ccccc1)C(S)=NC1CCCCC1 [MLS001033857],> 50 µM
14,CC1=NN(C(C#N)c2ccc([N+](=O)[O-])cc2)C(C)(C)C1 (stereo not given) [MLS001049177],> 50 µM
15,CONC(=N)c1nonc1N [MLS001049218],> 50 µM
16,O=C(Nc1ccc2c(c1)oc1ccccc12)N1CCOCC1 [Morpholine-4-carboxylic acid dibenzofuran-3-ylamide],> 50 µM
17,"Cc1ccc(NC2=NC3(CCCCC3)N=C(N)N2)c(C)c1 [N4-(2,4-dimethylphenyl)-1,3,5-triazaspiro[5.5]undeca-1,4-diene-2,4-diamine]",> 50 µM
18,COCC(=O)Nc1ccccc1-c1ccccc1 [N-2-biphenylyl-2-methoxyacetamide],> 50 µM
19,"CCc1cc2c(SCC(=O)N(C)C3CCS(=O)(=O)C3)ncnc2s1 (stereo not given) [N-(1,1-dioxothiolan-3-yl)-2-(6-ethylthieno[2,3-d]pyrimidin-4-yl)sulfanyl-N-methylacetamide]",> 50 µM
20,"Cc1cc(NS(=O)(=O)c2ccc(N3C(=O)C4C5C=CC(C5)C4C3=O)cc2)nc(C)n1 (stereo not given) [N-(2,6-dimethyl-4-pyrimidinyl)-4-(3,5-dioxo-4-azatricyclo[5.2.1.0~2,6~]dec-8-en-4-yl)benzenesulfonamide]",> 50 µM
21,Cc1ccc(NC(=S)NCCc2ccccc2)nc1 [N-(2-Phenethyl)-N -(2-(5-methylpyridyl))thiourea],5.5 µM
22,COc1ccc([N+](=O)[O-])cc1NCc1ccco1 [N-(2-furanylmethyl)-2-methoxy-5-nitroaniline],> 50 µM
23,"O=C(NCc1ccco1)C1CC(c2ccccc2C(F)(F)F)=NO1 (stereo not given) [N-(2-furanylmethyl)-3-[2-(trifluoromethyl)phenyl]-4,5-dihydroisoxazole-5-carboxamide]",> 50 µM
24,O=C(Nc1cc([N+](=O)[O-])ccc1N1CCOCC1)c1ccco1 [N-(2-morpholin-4-yl-5-nitro-phenyl)furan-2-carboxamide],> 50 µM
25,"Cc1cc(F)ccc1S(=O)(=O)Nc1ncnc2sc3c(c12)CCC3 [N-(7,8-dihydro-6H-cyclopenta[4,5]thieno[1,2-c]pyrimidin-1-yl)-4-fluoro-2-methylbenzenesulfonamide]",> 50 µM

row,Structure (SMILES),IC50
1,"COc1ccc2c(c1)-c1nc(NC(=O)c3cccs3)sc1CC2 [N-(8-methoxy-4,5-dihydrobenzo[e][1,3]benzothiazol-2-yl)-2-thiophenecarboxamide]",41.3 µM
2,CNC(=S)N1CCC(NC(=O)c2ccco2)CC1 [N-[1-(methylcarbamothioyl)piperidin-4-yl]furan-2-carboxamide],> 50 µM
3,O=C(NC1CCCC1)C(c1ccccn1)N(C(=O)c1csnn1)C1CC1 (stereo not given) [N-[2-(cyclopentylamino)-2-oxo-1-(2-pyridinyl)ethyl]-N-cyclopropyl-4-thiadiazolecarboxamide],> 50 µM
4,"COc1cccc(NC(C)(C)c2nnnn2-c2c(C)cccc2C)c1 [N-[2-[1-(2,6-dimethylphenyl)tetrazol-5-yl]propan-2-yl]-3-methoxyaniline]",> 50 µM
5,COc1ccc(C(=O)Nc2ccc(N3CCN(c4ccc(OC)cc4)CC3)c(C#N)c2)cc1 [N-[3-cyano-4-[4-(4-methoxyphenyl)piperazin-1-yl]phenyl]-4-methoxy-benzamide],> 50 µM
6,CCOCCCNS(=O)(=O)c1ccc(NC(=O)c2ccc(OC)c([N+](=O)[O-])c2)cc1 [N-[4-(3-ethoxypropylsulfamoyl)phenyl]-4-methoxy-3-nitrobenzamide],> 50 µM
7,"Cn1nc(C(=O)Nc2nc(-c3ccc(F)cc3)cs2)ccc1=O [N-[4-(4-fluorophenyl)-1,3-thiazol-2-yl]-1-methyl-6-oxopyridazine-3-carboxamide]",> 50 µM
8,"CC(C)c1csc(CN2CCCC(CCC(=O)NCc3ccccc3F)C2)n1 (stereo not given) [N-[(2-fluorophenyl)methyl]-3-[1-[(4-propan-2-yl-1,3-thiazol-2-yl)methyl]piperidin-3-yl]propanamide]",> 50 µM
9,O=C(NCc1ccc2c3c(cccc13)C(=O)N2)c1cccs1 [N-[(2-oxo-1H-benzo[cd]indol-6-yl)methyl]thiophene-2-carboxamide],> 50 µM
10,"COc1ccc(N(CC(=O)NCc2ccc(Cl)cc2)S(=O)(=O)c2ccccc2[N+](=O)[O-])c(OC)c1 [N-[(4-chlorophenyl)methyl]-2-(2,4-dimethoxy-N-(2-nitrophenyl)sulfonylanilino)acetamide]",> 50 µM
11,Cc1ccc(C(=O)NNC(=S)NC(=O)COc2ccccc2)cc1 [N-[[(4-methylbenzoyl)amino]carbamothioyl]-2-phenoxyacetamide],3 µM
12,"COc1cc(C(=O)NC(=S)N(C)Cc2ccccc2)cc(OC)c1OC [N-[benzyl(methyl)carbamothioyl]-3,4,5-trimethoxybenzamide]",> 50 µM
13,"CCCNC(=O)C1CC(c2ccc(C(F)(F)F)cc2)=NO1 (stereo not given) [N-propyl-3-[4-(trifluoromethyl)phenyl]-4,5-dihydro-1,2-oxazole-5-carboxamide]",14.3 µM
14,O=C(Oc1ccc2c(=O)c(Cl)coc2c1)c1ccncc1 [SMR000014947],6.2 µM
15,COc1ccccc1/N=C/c1nc(-c2ccccc2)oc1OC(C)=O [SMR000039734],7.75 µM
16,NC[C@H](O)c1ccc(O)cc1 [SMR000058358],> 50 µM
17,COC(=O)c1c(NC(=O)COC(=O)Cn2cnc3ccccc32)sc(C)c1C [SMR000062436],> 50 µM
18,Cn1cccc1C(=O)Nc1nc(-c2ccccn2)cs1 [SMR000064459],21.6 µM
19,O=C(Nc1nc(-c2ccc(Cl)s2)cs1)c1cccs1 [SMR000065041],0.364 µM
20,C=CCNc1nc(NC(C)(C)CO)nc(OC)n1 [SMR000117555],> 50 µM
21,Cc1cccc(CN2CCN(CC(=O)N3CCCC3)C2=O)c1 [SMR000130591],> 50 µM
22,CCc1ccc(NC(=O)CCn2cccc2)cc1 [SMR000130982],> 50 µM
23,COc1ccc(N2C(=O)C(Cl)=C(N3CCCC(C)C3)C2=O)cc1 (stereo not given) [SMR000142424],> 50 µM
24,C=CCn1c(Cc2cccs2)nnc1SCC(=O)NCc1ccco1 [SMR000153108],> 50 µM
25,COc1cccc(C=NNC(=O)c2[nH]c(C)c(C(=O)NN=Cc3cccc(OC)c3O)c2C)c1O [SMR000162187],> 50 µM
